Experimental data reported in article PMC3852661, “Structural basis of SUFU–GLI interaction in human Hedgehog signalling regulation” (Acta Crystallographica Section D: Biological Crystallography, 2013).

Tests used:
[1] = tested on: MBP-SUFU-FL, mutation of Tyr147; test: Microscale thermophoresis, MBP-SUFU-FL mutated at Tyr147; format: binding, human; settings: mutation of Tyr147 in MBP-SUFU-FL, data not shown
Protocol: (§1) A 5-FAM-labelled peptide (FAM-GLI1p) comprising residues 115–131 of GLI1 (Supplementary Table S1b) was synthesized by Pepceuticals Ltd. A titration series of each recombinant protein was prepared by serial 1:1 dilutions in MST buffer (50 mM Tris–HCl pH 7.6, 150 mM NaCl, 10 mM MgCl2, 0.05% Tween-20) and mixed in a 1:1 ratio with FAM-GLI1p to give final concentrations of 50 nM FAM-GLI1p with MBP-SUFU constructs in the ranges 14.2–29 070 and 54–110 500 nM. Reactions were aspirated into glass capillaries and the thermophoretic movement of FAM-GLI1p was monitored using a Monolith NT.115 instrument (NanoTemper Technologies; Wienken et al., 2010[▶]), with a laser on for 30 s and off for 5 s and a laser power/voltage of 20% for MBP-SUFU-FL and the MBP-SUFU-FL mutants, 40% for MBP-SUFU-Δ and 80% for MBP-SUFU-SH. Fluorescence was measured before laser heating (F Cold) and after 30 s of laser-on time (F Hot). The normalized fluorescence F Hot/F Cold reflects the concentration ratio of labelled molecules. F Hot/F Cold was plotted directly and multiplied by a factor of […], yielding a relative change in fluorescence per thousand. K d was calculated from three independent thermophoresis measurements using NanoTemper software (NanoTemper Technologies). […]

[2] = tested on: MBP-SUFU-FL, mutation of Asp159; test: Microscale thermophoresis, MBP-SUFU-FL mutated at Asp159; format: binding, human; settings: mutation of Asp159 in MBP-SUFU-FL, data not shown
Protocol: as §1

MBP-SUFU-Δ = target: T1, MBP-SUFU-Δ (Homo sapiens, UniProt Q9UMX1, DEL285-359/L360P/P281R/P282G/R280S/S279P); test: SYPRO Orange initial fluorescence upon peptide addition, MBP-SUFU-Δ; format: binding; settings: excitation 470 nm, emission 570 nm, pH 7.0
T1 construct: subcloning different SUFU32–483 variants into vector pLJMBP4c; His tag (as in MBP-SUFU-FL; purified on HisTrap) (C); made in house; host or cells: Escherichia coli JM109 (DE3)
Protocol: (§2) Recombinant MBP-SUFU proteins were diluted to 2.6 µM in 50 mM Na HEPES pH 7.0, 50 mM NaCl, 5 mM β-mercaptoethanol; the peptides GLI1p and GLI1p-SH (Supplementary Table S1b), synthesized by Dr W. Mawby (University of Bristol), were dissolved in the same buffer. Proteins were spun at 14 000g for 20 min at 4°C before adding SYPRO Orange (Molecular Probes) to a final concentration of 6×. Reaction volumes of 25 µl were prepared in 96-well PCR plates with 2.2 µM protein/SYPRO Orange solution and, where applicable, 44 µM peptide. Plates were sealed with optical tape, heated from 20 to 90°C in 12 s 0.2°C steps in an iCycler and fluorescence was detected using an excitation wavelength of 470 nm and an emission wavelength of 570 nm.
(§3) Recombinant MBP-SUFU constructs were diluted to 2.5 µM in 50 mM Na HEPES pH 7.0, 50 mM NaCl, 5 mM β-mercaptoethanol and spun at 14 000g for 20 min at 4°C before the addition of SYPRO Orange to a final 5× concentration of dye. The fluorescence of 100 µl samples was measured in black 96-well plates (Nunc) using excitation at λ = 470 nm and emission at λ = 570 nm. GLI1p or GLI1p-SH peptides prepared in the same buffer as above were added in the given ratios and mixed before a second reading was taken. Readings post-peptide addition were divided by the corresponding pre-peptide addition measurements to obtain normalized results. […]

MBP-SUFU-FL = target: T2, MBP-SUFU-FL (Homo sapiens, UniProt Q9UMX1); test: SYPRO Orange initial fluorescence upon peptide addition, MBP-SUFU-FL; format: binding; settings: excitation 470 nm, emission 570 nm, pH 7.0
T2 construct: containing residues 32–483 of human SUFU and a C-terminal hexahistidine tag; hexahistidine tag (C); made in house; host or cells: Escherichia coli JM109 (DE3)
Protocol: as §2, §3

T2 sequence (Q9UMX1 32-483, other chains not shown): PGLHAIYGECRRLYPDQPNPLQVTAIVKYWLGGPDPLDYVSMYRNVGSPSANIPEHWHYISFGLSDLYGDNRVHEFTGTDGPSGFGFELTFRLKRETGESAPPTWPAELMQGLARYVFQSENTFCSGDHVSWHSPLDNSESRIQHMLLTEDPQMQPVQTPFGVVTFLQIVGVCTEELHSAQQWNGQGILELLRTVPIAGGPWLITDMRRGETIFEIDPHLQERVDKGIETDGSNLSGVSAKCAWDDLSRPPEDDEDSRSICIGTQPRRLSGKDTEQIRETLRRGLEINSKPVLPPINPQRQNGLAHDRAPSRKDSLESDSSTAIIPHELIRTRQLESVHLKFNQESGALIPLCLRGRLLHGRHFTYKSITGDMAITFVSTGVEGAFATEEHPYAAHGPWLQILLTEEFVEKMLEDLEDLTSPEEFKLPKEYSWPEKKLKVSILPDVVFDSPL
T1 sequence (Q9UMX1 with tags, fused parts or gaps S279P/R280S/P281R/P282G/DEL285-359/L360P limits assumed, other chains not shown): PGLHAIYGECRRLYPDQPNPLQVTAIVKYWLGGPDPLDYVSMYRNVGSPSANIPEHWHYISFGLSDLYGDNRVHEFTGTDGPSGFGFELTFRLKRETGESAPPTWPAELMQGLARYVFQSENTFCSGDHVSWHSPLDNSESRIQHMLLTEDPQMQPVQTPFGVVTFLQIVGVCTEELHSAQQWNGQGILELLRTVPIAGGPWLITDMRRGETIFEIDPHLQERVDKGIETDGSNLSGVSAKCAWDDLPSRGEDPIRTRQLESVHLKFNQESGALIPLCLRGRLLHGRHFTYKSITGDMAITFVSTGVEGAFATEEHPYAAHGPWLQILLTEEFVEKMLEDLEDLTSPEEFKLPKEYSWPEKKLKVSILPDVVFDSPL

detectable binding [1]: abolished detectable binding | detectable binding [2]: abolished detectable binding | initial fluorescence upon addition of GLI1p (MBP-SUFU-Δ): no such effect | initial fluorescence upon addition of GLI1p (MBP-SUFU-FL): high initial fluorescence values
Substance: GLI1p: human GLI1-derived peptide; residues 115–131, containing the highly conserved SYGH motif (TSPGGSYGHLSIGTMSP)
